Test results published in patent US8017602B2, “N-(2-(2-(5-hydroxy-3-oxo-3,4-dihydro-2H-benzo[b][1,4]oxazin-8-yl)ethylamino)ethyl)-3-(phenethoxy)propanamide derivatives, processes for their preparation, pharmaceutical compositions containing them and their use in therapy” (AstraZeneca AB, priority 2008, dated 2011).
Structures can show the parent of a compound that is named as a salt.

Assays:
[1] = biological target: T1, recombinant human α1D receptor (Homo sapiens, UniProt P25100); test: Adrenergic α1D selectivity binding assay ([3H]-prazosin); details: inhibition of [3H]-prazosin binding, HEK293 membranes, read-out: α1 bind pIC50 (converted)
T1 construct: expressed in transfected cells; host or cells: HEK293
T1 sequence (P25100 1-572): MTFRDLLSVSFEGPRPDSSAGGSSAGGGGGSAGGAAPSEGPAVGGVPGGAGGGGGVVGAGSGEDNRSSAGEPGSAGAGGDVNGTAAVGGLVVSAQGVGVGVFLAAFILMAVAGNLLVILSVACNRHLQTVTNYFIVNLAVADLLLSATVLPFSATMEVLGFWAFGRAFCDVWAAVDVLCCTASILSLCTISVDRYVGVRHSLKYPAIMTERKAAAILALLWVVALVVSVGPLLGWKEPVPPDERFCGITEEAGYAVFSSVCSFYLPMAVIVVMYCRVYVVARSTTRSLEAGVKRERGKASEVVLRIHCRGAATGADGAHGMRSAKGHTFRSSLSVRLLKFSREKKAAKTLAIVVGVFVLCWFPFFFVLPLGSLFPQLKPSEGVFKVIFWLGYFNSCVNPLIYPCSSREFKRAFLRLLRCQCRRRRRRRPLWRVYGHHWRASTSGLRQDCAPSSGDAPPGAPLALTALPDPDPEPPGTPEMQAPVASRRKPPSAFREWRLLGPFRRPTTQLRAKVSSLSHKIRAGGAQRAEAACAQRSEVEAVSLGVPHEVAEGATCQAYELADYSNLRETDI
Procedure: Membranes were prepared from human embryonic kidney 293 (HEK293) cells expressing recombinant human α1D receptor. These were diluted in Assay Buffer (50 mM HEPES, 1 mM EDTA, pH 7.4) to provide a final concentration of membranes that gave a clear window between maximum and minimum specific binding.
(§1) Assays were performed in U-bottomed 96-well polypropylene plates. 10 μl [^3H]-prazosin (0.3 nM final concentration) and 10 μl of test compound (10× final concentration) were added to each test well. For each assay plate 8 replicates were obtained for [^3H]-prazosin binding in the presence of 10 μl vehicle (10% (v/v) DMSO in Assay Buffer; defining maximum binding) or 10 μL BMY7378 (10 μM final concentration; defining non-specific binding (NSB)). Membranes were then added to achieve a final volume of 100 μL. The plates were incubated for 2 h at room temperature and then filtered onto PEI coated GF/B filter plates, pre-soaked for 1 h in Assay Buffer, using a 96-well plate Tomtec cell harvester. Five washes with 250 μl wash buffer (50 mM HEPES, 1 mM EDTA, pH 7.4) were performed at 4° C. to remove unbound radioactivity. The plates were dried then sealed from underneath using Packard plate sealers and MicroScint-O (50 μl) was added to each well. The plates were sealed (TopSeal A) and filter-bound radioactivity was measured with a scintillation counter (TopCount, Packard BioScience) using a 3-minute counting protocol.
(§2) Total specific binding (B0) was determined by subtracting the mean NSB from the mean maximum binding. NSB values were also subtracted from values from all other wells. […] Data was fitted to a four parameter logistic equation to determine the compound potency, which was expressed as pIC50 (negative log molar concentration inducing 50% inhibition of [^3H]-prazosin binding).

[2] = biological target: T2, recombinant human adrenergic beta 1 receptors (Homo sapiens, UniProt P08588); test: Adrenergic β1 selectivity binding assay ([125I]-Iodocyanopindolol); details: inhibition of [125I]-Iodocyanopindolol binding, human β1 membranes; read-out: β1 bind p IC50 (converted)
T2 construct: purchased Euroscreen
T2 sequence (P08588 whole entry): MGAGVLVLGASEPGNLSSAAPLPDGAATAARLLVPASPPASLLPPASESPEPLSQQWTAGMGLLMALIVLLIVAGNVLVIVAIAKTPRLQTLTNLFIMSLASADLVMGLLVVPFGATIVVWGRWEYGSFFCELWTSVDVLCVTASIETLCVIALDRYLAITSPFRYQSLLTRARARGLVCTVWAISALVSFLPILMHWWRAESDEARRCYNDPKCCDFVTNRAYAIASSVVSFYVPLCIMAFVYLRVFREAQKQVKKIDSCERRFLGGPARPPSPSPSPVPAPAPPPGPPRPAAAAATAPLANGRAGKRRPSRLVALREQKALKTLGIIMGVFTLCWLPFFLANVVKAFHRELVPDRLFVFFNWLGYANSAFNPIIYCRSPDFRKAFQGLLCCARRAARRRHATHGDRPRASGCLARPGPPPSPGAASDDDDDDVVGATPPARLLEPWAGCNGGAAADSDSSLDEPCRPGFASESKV
Procedure: Membranes containing recombinant human adrenergic beta 1 receptors were obtained from Euroscreen. These were diluted in Assay Buffer (50 mM HEPES, 1 mM EDTA, 120 mM NaCl, 0.1% gelatin, pH 7.4) to provide a final concentration of membranes that gave a clear window between maximum and minimum specific binding.
as §1, with “plates. 10 μL [^125I]-Iodocyanopindolol (0.036 nM final” for “plates. 10 μl [^3H]-prazosin (0.3 nM final”, “and 10 μL of test” for “and 10 μl of test”, “obtained for [^125I]-Iodocyanopindolol binding in” for “obtained for [^3H]-prazosin binding in”, “or 10 μl Propranolol (10 μM” for “or 10 μL BMY7378 (10 μM”, “with 250 μL wash buffer” for “with 250 μl wash buffer”, “mM EDTA, 120 mM NaCl, pH 7.4)” for “mM EDTA, pH 7.4)”
as §2, with “[^125I]-Iodocyanopindolol” for “[^3H]-prazosin”

Compound | IC50 [1] | IC50 [2]
CCCC[C@@H](C)N(CCNCCc1ccc(O)c2c1OCC(=O)N2)C(=O)CCOCCc1cccc(-c2cnn(C)c2)c1 [Example 30, (R)—N-(Hexan-2-yl)-N-(2-(2-(5-hydroxy-3-oxo-3,4-dihydro-2H-benzo[b][1,4]oxazin-8-yl)ethylamino)ethyl)-3-(3-(1-methyl-1H-pyrazol-4-yl)phenethoxy)propanamide Trifluoroacetic Acid Salt] | 1000 nM | 3980 nM
Cn1nnnc1-c1cccc(CCOCCC(=O)N(CCNCCc2ccc(O)c3c2OCC(=O)N3)C2CCCCC2)c1 [Example 08, N-Cyclohexyl-N-(2-(2-(5-hydroxy-3-oxo-3,4-dihydro-2H-benzo[b][1,4]oxazin-8-yl)ethylamino)ethyl)-3-(3-(1-methyl-1H-tetrazol-5-yl)phenethoxy)propanamide Trifluoroacetic Acid Salt] | 3980 nM | > 10000 nM
O=C1COc2c(CCNCCN(C(=O)CCOCCc3cccc(-c4nn[nH]n4)c3)C3CCCCC3)ccc(O)c2N1 [Example 15, 3-(3-(2H-Tetrazol-5-yl)phenethoxy)-N-cyclohexyl-N-(2-(2-(5-hydroxy-3-oxo-3,4-dihydro-2H-benzo[b][1,4]oxazin-8-yl)ethylamino)ethyl)propanamide Trifluoroacetic Acid Salt] | > 10000 nM | > 10000 nM
CCn1cc(-c2cccc(CCOCCC(=O)N(CCNCCc3ccc(O)c4c3OCC(=O)N4)C3CCCCC3)c2)nn1 [Example 04, N-Cyclohexyl-3-(3-(1-ethyl-1H-1,2,3-triazol-4-yl)phenethoxy)-N-(2-(2-(5-hydroxy-3-oxo-3,4-dihydro-2H-benzo[b][1,4]oxazin-8-yl)ethylamino)ethyl)propanamide Trifluoroacetic Acid Salt] | 2000 nM | > 10000 nM
Cn1cc(-c2cc(F)cc(CCOCCC(=O)N(CCNCCc3ccc(O)c4c3OCC(=O)N4)C3CCCCC3)c2)cn1 [Example 17, N-Cyclohexyl-3-(3-fluoro-5-(1-methyl-1H-pyrazol-4-yl)phenethoxy)-N-(2-(2-(5-hydroxy-3-oxo-3,4-dihydro-2H-benzo[b][1,4]oxazin-8-yl)ethylamino)ethyl)propanamide Trifluoroacetic Acid Salt] | 501 nM | 5010 nM
CCC[C@@H](C)N(CCNCCc1ccc(O)c2c1OCC(=O)N2)C(=O)CCOCCc1cccc(-c2cnn(C(C)C)c2)c1 [Example 21, (R)—N-(2-(2-(5-Hydroxy-3-oxo-3,4-dihydro-2H-benzo[b][1,4]oxazin-8-yl)ethylamino)ethyl)-3-(3-(1-isopropyl-1H-pyrazol-4-yl)phenethoxy)-N-(pentan-2-yl)propanamide Trifluoroacetic Acid Salt] | 794 nM | 6310 nM
CC(C)[C@@H](C)N(CCNCCc1ccc(O)c2c1OCC(=O)N2)C(=O)CCOCCc1cccc(-c2cnn(C)c2)c1 [Example 09, (R)—N-(2-(2-(5-Hydroxy-3-oxo-3,4-dihydro-2H-benzo[b][1,4]oxazin-8-yl)ethylamino)ethyl)-3-(3-(1-methyl-1H-pyrazol-4-yl)phenethoxy)-N-(3-methylbutan-2-yl)propanamide Trifluoroacetic Acid Salt] | 1000 nM | > 10000 nM
Cc1nc(-c2cccc(CCOCCC(=O)N(CCNCCc3ccc(O)c4c3OCC(=O)N4)C3CCCCC3)c2)no1 [Example 27, N-Cyclohexyl-N-(2-(2-(5-hydroxy-3-oxo-3,4-dihydro-2H-benzo[b][1,4]oxazin-8-yl)ethylamino)ethyl)-3-(3-(5-methyl-1,2,4-oxadiazol-3-yl)phenethoxy)propanamide Trifluoroacetic Acid Salt] | 1000 nM | > 10000 nM
Cn1cc(-c2cc(CCOCCC(=O)N(CCNCCc3ccc(O)c4c3OCC(=O)N4)C3CCCCC3)ccc2F)cn1 [Example 13, N-Cyclohexyl-3-(4-fluoro-3-(1-methyl-1H-pyrazol-4-yl)phenethoxy)-N-(2-(2-(5-hydroxy-3-oxo-3,4-dihydro-2H-benzo[b][1,4]oxazin-8-yl)ethylamino)ethyl)propanamide Trifluoroacetic Acid Salt] | 631 nM | 6310 nM

Further lines, results first:

IC50 [1] | IC50 [2] | Compound
1000 nM | 3980 nM | O=C1COc2c(CCNCCN(C(=O)CCOCCc3cccc(-c4cnn(CC5CC5)c4)c3)C3CCCC3)ccc(O)c2N1 [Example 19, N-Cyclopentyl-3-(3-(1-(cyclopropylmethyl)-1H-pyrazol-4-yl)phenethoxy)-N-(2-(2-(5-hydroxy-3-oxo-3,4-dihydro-2H -benzo[b][1,4]oxazin-8-yl)ethylamino)ethyl)propanamide Trifluoroacetic Acid Salt]
794 nM | 5010 nM | CC(C)n1cc(-c2cccc(CCOCCC(=O)N(CCNCCc3ccc(O)c4c3OCC(=O)N4)C3CCCC3)c2)cn1 [Example 22, N-Cyclopentyl-N-(2-(2-(5-hydroxy-3-oxo-3,4-dihydro-2H-benzo[b][1,4]oxazin-8-yl)ethylamino)ethyl)-3-(3-(1-isopropyl-1H-pyrazol-4-yl)phenethoxy)propanamide Trifluoroacetic Acid Salt]
2000 nM | > 7940 nM | Cn1cc(-c2cccc(CCOCCC(=O)N(CCNCCc3ccc(O)c4c3OCC(=O)N4)C3CCCCC3)c2)nn1 [Example 05, N-Cyclohexyl-N-(2-(2-(5-hydroxy-3-oxo-3,4-dihydro-2H-benzo[b][1,4]oxazin-8-yl)ethylamino)ethyl)-3-(3-(1-methyl-1H-1,2,3-triazol-4-yl)phenethoxy)propanamide Trifluoroacetic Acid Salt]
794 nM | > 10000 nM | CCn1cc(-c2cccc(CCOCCC(=O)N(CCNCCc3ccc(O)c4c3OCC(=O)N4)C3CCCCC3)c2)cn1 [Example 28, N-Cyclohexyl-3-(3-(1-ethyl-1H-pyrazol-4-yl)phenethoxy)-N-(2-(2-(5-hydroxy-3-oxo-3,4-dihydro-2H-benzo[b][1,4]oxazin-8-yl)ethylamino)ethyl)propanamide]
398 nM | 5010 nM | Cn1cc(-c2cccc(CCOCCC(=O)N(CCNCCc3ccc(O)c4c3OCC(=O)N4)C3CCCCCC3)c2)cn1 [Example 31, N-Cycloheptyl-N-(2-(2-(5-hydroxy-3-oxo-3,4-dihydro-2H-benzo[b][1,4]oxazin-8-yl)ethylamino)ethyl)-3-(3-(1-methyl-1H-pyrazol-4-yl)phenethoxy)propanamide Trifluoroacetic Acid Salt]
